Source: patent US9618524B2, “Method, composition, isolation and identification of a plaque particle and related biomarker” (Plaxgen Inc., priority 2012, dated 2017)

Key:
Assay in all cases: Mass spectroscopy proteomics, semi-quantitative binding affinity of serum proteins (plaqueproteome, Table 2)
Details in all cases: higher number = stronger affinity
[1] = target: T1, Abeta-42 plaque particles (Homo sapiens, UniProt P05067)
T1 construct: Abeta 1-42
Description: Next to isolate serum derived Abeta-42 plaque particles, the plasma or serum samples obtained from AD subjects were first centrifuged at 5,000 rpm for 5 min and the supernatants were transferred to new centrifuge tubes. Next, the supernatants were diluted in PBS to make 50% of the serum and plasma samples and used for incubation with Abeta-42 plaque oligomers/aggregates. Each assay was performed in 1 mL reaction (800 μL of 50% plasma or serum) and 200 μL (30 μg) of the Abeta-42 aggregates and the mixtures were incubated at 37° C. for 1 hr. To the mixture Thioflavin S dye (120 μg) was added and the sample was incubated for additional 30 min at 37° C. After the incubation, the mixture was directly used for sample acquisition using flow cytometer (FACS ARIA II, BD Biosciences, San Jose, Calif.). After initial detection of Abeta-42 plaque particles in the acquisition blot, gates were drawn in fluorescent dot blot to separately sort and isolate fluorescently labeled Abeta-42 particles.
(§1) For preparing trypsin digested peptide sequences, the isolated plaque particles were centrifuged at 10000 rpm for 5 min and the pellet containing plaque particles was resuspended in 100 μl PBS buffer. Stock solutions of digestion buffer (Ammonium Biocarbonate 50 mM), reducing buffer (DDT 100 mM) and alkylation buffer (lodoaceamide 100 mM) were prepared and stored at −20° C. for up to two months. For trypsin digestion, 100 μl of each plaque particles (2000 of Abeta-42, cholesterol, Tau and alpha-synuclein) were precipitated using cold acetone −80° C. by adding 4X's the volume. The samples were placed on dry ice for 10 min with intermittent vortex. Next, the samples were centrifuged at 4° C. at 10000 G for 10 min. Top layer of acetone was carefully removed from the tube with care not to disturb the plaque particles pellet. The samples were speed-vac for 10 min to ensure all acetone has been boiled away. The plaque particles pellet were reconstituted with 15 μl 8M Urea 100 mM Ammonium bicarbonate stock and 20 μl protease max solution. The protease max solution (Promega, Madison, Wis.) was prepared from stock by adding 60 μl 50 mM Ammonium bicarbonate and used for 3 solution digests (20 μl each). […] The tubes were incubated at 55° C. for 30 minutes. The tubes were then removed and brought to the room temperature followed by addition of 3.2 μl of 1M acrylamide and incubated at room temperature for 30 minutes. To the sample, 63 μL of 50 mM Ammonium bicarbonate was added for a final volume of 98 μl and 2 μl of trypsin (10 μg, Trypsin/Lys C Mix). After mixing the solution with pipet the samples were incubated at 37° C. overnight. After the overnight digest, the tryptic digest were quenched and acidified by adding 10 μl of 50% formic acid/water stock dilution. The samples were centrifuged at 10000 G for 2 minutes and purified using stage tip and used for MS/Mass analysis.
(§2) All MS/MS samples were analyzed using Sequest (Thermo Fisher Scientific, San Jose, Calif., USA; version 1.0). Sequest was set up to search the SUMS_uniprot_Human database (35847 entries) assuming the digestion enzyme strict trypsin. Sequest was searched with a fragment ion mass tolerance of 1.00 Da and a parent ion tolerance of 20 PPM. Propionamide of cysteine was specified in Sequest as a fixed modification. Oxidation of methionine and phospho of serine, threonine and tyrosine were specified in Sequest as variable modifications.
Scaffold (version Scaffold_4.2.1, Proteome Software Inc., Portland, Oreg.) was used to validate MS/MS based peptide and protein identifications. […] Protein probabilities were assigned by the Protein Prophet algorithm (Nesvizhskii, Al et al 2003). […] Proteins sharing significant peptide evidence were grouped into clusters. Proteins were annotated with GO terms from NCBI (downloaded Jan. 17, 2014).

Tau plaque particles = test system: Tau plaque particles; parameters: species or system human
Description: For Tau-74 (74-102) (Exon 3/Insert 2 domain) preparation, 1 mg of Tau-74 was suspended in 1 mL of PBS and the sample was incubated at 37° C. for 2 hrs. Similarly for preparing Tau-275 (275-305) (Repeat 2 domain) 1 mg of the peptide was suspended in 1 mL of PBS and the sample was incubated at 37° C. for 2 hrs. After incubation, all the samples were centrifuged for 5 min. at 5000 rpm to remove precipitate, if any, and the supernatant containing oligomers/aggregates were used for in vitro amyloid plaque particles formation assay. For detecting Tau plaque particles, Thioflavin S (Ex/Em=430 nm/550 nm) amyloid binding fluorescent dye (10 μg) was used in the assay.
Next, to isolate Tau plaque particles, as performed for Abeta-42 and Abeta-28 plaque particles isolation, diluted serum samples were used for incubation separately with Tau-45, Tau-74 and Tau-275 oligomers/aggregates. Each assay was performed in 1 mL reaction (800 μL of 50% plasma or serum) and 200 μL (30 μg) of each Tau aggregates and the mixtures were incubated at 37° C. for 1 hr. To the each mixture Thioflavin S dye (120 μg) was added and the sample was incubated for additional 30 min at 37° C. After the incubation, each sample was directly used for sample acquisition using flow cytometer (FACS ARIA II, BD Biosciences, San Jose, Calif.). After initial detection of Tau plaque particles, gates were drawn in the acquisition blot to separately sort and isolate fluorescently labeled Tau plaque particles.
as §1, §2

[2] = test system: High Density cholesterol (Chl Large) plaque particles; parameters: species or system human
Description: (§3) The goal was to isolate plaque particles synthesized in the bio-fluids in a relatively pure form to enable their subsequent use for identification of components that contribute to the plaque formation. In order to isolate cholesterol plaque particles, the plasma or serum samples obtained from atherosclerotic subjects were first centrifuged at 5,000 rpm for 5 min and the supernatants were transferred to new centrifuge tubes. Next, the supernatants were diluted in PBS to make 50% of the serum and used for incubation with cholesterol oligomers/aggregates. Each assay was performed in 1 mL reaction (800 μL of 50% plasma or serum) and 200 μL (30 μg) of the Cholesterol aggregates and the mixtures were incubated at 37° C. for 1 hr After the incubation, the mixture was directly used for sample acquisition using flow cytometer (FACS ARIA II, BD Biosciences, San Jose, Calif.). […] In order to isolate these fractions, three sets of gates were drawn in the acquisition blot to separately sort and isolate High density or high complex cholesterol particles, Low density or low complex cholesterol particles and both High and low density cholesterol particles together.
as §1, §2
(§4) Scaffold (version Scaffold_4.2.1, Proteome Software Inc., Portland, Oreg.) was used to validate MS/MS based peptide and protein identifications. […] Protein probabilities were assigned by the Protein Prophet algorithm (Nesvizhskii, Al et al 2003).

[3] = test system: Low density cholesterol (Chl small) plaque particles; parameters: species or system human
Description: as §3, §1, §2, §4

[4] = target: T2, alpha-synuclein plaque particles (Homo sapiens, UniProt P37840)
T2 construct: 140 amino acids polypeptide
Description: To prepare oligomers/aggregates of human alpha-synuclein (140 amino acids polypeptide), 1 mg of the recombinant alpha-synuclein protein was suspended in 1 mL of PBS and the sample was incubated at 37° C. for 2 hrs. After incubation, all the samples were centrifuged for 5 min. at 5000 rpm to remove precipitate, if any, and the supernatant containing oligomers/aggregates were used in vitro plaque particles formation assay. For detecting alpha-synuclein plaque particles Thioflavin S (Ex/Em=430 nm/550 nm) amyloid binding fluorescent dye (10 μg) was used.
Similarly, to isolate alpha-synuclein plaque particles, diluted plasma or serum samples obtained from AD subjects were used for incubation with alpha-synuclein plaque oligomers/aggregates. Each assay was performed in 1 mL reaction (800 μL of 50% plasma or serum) and 200 μL (30 μg) of the alpha-synuclein aggregates and the mixtures were incubated at 37° C. for 1 hr. To the mixture Thioflavin S dye (120 μg) was added and the sample was incubated for additional 30 min at 37° C. After the incubation, the mixture was directly used for sample acquisition using flow cytometer (FACS ARIA II, BD Biosciences, San Jose, Calif.). After initial detection of alpha-synuclein plaque particles, gates were drawn in the acquisition blot to separately sort and isolate fluorescently labeled alpha-synuclein particles.
as §1, §2
Scaffold (version Scaffold_4.2.1, Proteome Software Inc., Portland, Oreg.) was used to validate MS/MS based peptide and protein identifications.

| Substance | Semi-quantitative analysis of proteins binding to different plaque particles: Abeta-42 [1] | Semi-quantitative analysis of proteins binding to different plaque particles: Tau (Tau plaque particles) | Semi-quantitative analysis of proteins binding to different plaque particles: Chl Large [2] | Semi-quantitative analysis of proteins binding to different plaque particles: Chl small [3] | Semi-quantitative analysis of proteins binding to different plaque particles: Synuclein [4] |
| --- | --- | --- | --- | --- | --- |
| Alpha-1-acid glycoprotein 1 | 12 | 11 | 9 | 8 | 7 |
| Alpha-1-antitrypsin | – | 28 | 22 | 21 | 20 |
| Alpha-1B-glycoprotein | 4 | 6 | 7 | 7 | 11 |
| Alpha-2-macroglobulin | 32 | 45 | 43 | 43 | 44 |
| Antithrombin-III | 5 | 6 | 8 | 6 | 9 |
| Apolipoprotein A-I | 19 | 14 | 21 | 21 | 18 |
| Apolipoprotein A-II | 5 | 10 | 8 | 6 | 7 |
| Apolipoprotein B-100 | 62 | 65 | 47 | 51 | 42 |
| Apolipoprotein C-I (TPDVSSALDKLKEFGNTLEDKARELISRIKQSELSAKMREWFSETFQKVKEKLKIDS) | 2 | 1 | 1 | 1 | 0 |
| Apolipoprotein C-III | 4 | 5 | 4 | 4 | 1 |
| Apolipoprotein D | 0 | 3 | 2 | 2 | 1 |
| Apolipoprotein E | – | 13 | 7 | 9 | 8 |
| Cathepsin D | 5 | 0 | 0 | 0 | 0 |
| Cluster of Alpha-1-antitrypsin | – | 28 | 22 | 21 | 20 |
